Results from US11056705B2, “Organic anolyte materials for flow batteries” (THE REGENTS OF THE UNIVERSITY OF MICHIGAN, priority 2015, dated 2021).
Marks after values point to notes of the source that are not given here.

Legend:
[1] = Cyclic voltammetry (CV) of anolyte candidates in a three-electrode cell; format: physicochemical; conditions: for reduction within the electrochemical window of MeCN: MeCN with NBu4BF4; for reduction potential: MeCN with NBu4BF4 (TBABF4) supporting electrolyte, versus Ag/Ag+; for reversibility of reduction: scan rate not specified; for ipc1/ipa1 (10 mV/s) / ipc1/ipa1 (100 mV/s) / E1^0: 0.01M substrate, 0.10M support; for ipc1/ipa1 (10 mV/s) / ipc1/ipa1 (100 mV/s): 2nd cycle; for E1^0: Ag/Ag+ reference, (E1c+E1a)/2, — = no anodic current observed; for reversibility of redox couple: 10 mV/s (slower scan rates); for current peak-height ratios: low potential couples in TBABF4 supports
Protocol: The electrochemistry of a series of heteroarenes was evaluated by cyclic voltammetry (CV). Electrochemical analysis was performed in the absence of oxygen and moisture. The experiments were conducted in a three-electrode cell comprised of a glassy carbon working electrode, a platinum counter electrode, and a Ag/Ag^+ reference electrode. The CV of each anolyte candidate was initially conducted in acetonitrile (MeCN) with tetrabutylammonium tetrafluoroborate (TBABF4) as the supporting electrolyte.
The reversibility of each redox couple in the CV was estimated by calculating the ratio of the diffusion-limited peak-heights of the cathodic (ipc) and anodic (ipa) currents (FIG. 2). The current peak heights were determined from the second CV cycle, and are all reported following deconvolution of the current-potential plot. […] In addition, […] conducted at slow scan rates allows for an extended lifetime of the reduced species (FIG. 2, 10 mV/s scan). With longer lifetimes, the concentration of charged anolytes that are susceptible to irreversible chemical or electrochemical reactions will decrease, and lower current responses upon re-oxidation will be observed. As a result, redox couples measured at slow scan rates generally occur with current peak-height ratios that deviate from unity to a greater extent than couples measured at faster scan rates. Thus, these techniques provide a method to rapidly assess and compare a range of anolyte materials.

[2] = as above; format: physicochemical; conditions: for reversibility of redox couple: MeCN/TBABF4; for ipc1/ipa1 (10 mV/s) / ipc1/ipa1 (100 mV/s) / ipc2/ipa2 (10 mV/s): 2nd cycle; for ipc2/ipa2 (10 mV/s): second couple
[3] = MeCN/LiBF4, 0.01M substrate, 0.10M support
[4] = PC/LiBF4, 0.01M substrate, 0.10M support
[5] = PC/TBABF4, 0.01M substrate, 0.10M support
[6] = MeCN/LiBF4, 0.01M substrate, 0.10M support, (E1c+E1a)/2, — = no anodic current observed
[7] = MeCN/LiBF4, 0.01M substrate, 0.10M support, (E2c+E2a)/2
[8] = MeCN/LiBF4, CV measured at 200 mV/s scan rate

Structure (SMILES)	ipc1/ipa1 (10 mV/s) ([1]; MeCN/TBABF4)	ipc1/ipa1 (100 mV/s) ([1]; MeCN/TBABF4)	E1^0 ([1]; MeCN/TBABF4) [V]	ipc1/ipa1 (100 mV/s) ([1]; MeCN/LiBF4)	ipc1/ipa1 (10 mV/s) [2, 3]	E1^0 [2, 6] [V]	other results
COc1ccccn1 [2-methoxypyridine, reference compound]	–	–	–	–	–	–	reduction within the electrochemical window of MeCN [1]: no reduction was observed
Cc1ccccn1 [2-methylpyridine, reference compound]	–	–	–	–	–	–	reduction within the electrochemical window of MeCN [1]: no reduction was observed
COc1ccnc(-c2cc(OC)ccn2)c1 [4,4′-methoxy bipyridine, reference compound]	–	–	–	–	–	–	reduction potential [1]: −2.6 V; reversibility of reduction ([1]; MeCN/TBABF4): reversibly
COc1ccncc1 [4-methoxypyridine, reference compound]	–	–	–	–	–	–	reduction within the electrochemical window of MeCN [1]: no reduction was observed
Cc1ccncc1 [4-methylpyridine, reference compound]	–	–	–	–	–	–	reduction within the electrochemical window of MeCN [1]: no reduction was observed
COC(=O)c1ccccn1 [Compound 1a, Methyl picolinate]	>5	1.83	−2.36	–	–	–	reversibility of redox couple ([1]; MeCN/TBABF4): completely irreversible; reversibility of redox couple ([2]; 100 mV/s): quasi-reversible
COC(=O)c1cccnc1 [Compound 2a, methyl nicotinate]	>5	>5	–	–	–	–	reversibility of reduction ([1]; MeCN/TBABF4): No re-oxidation current was observed
COC(=O)c1ccncc1 [Compound 3a, methyl isonicotinate]	1.67	1.15	−2.16	>5	>5	–	reversibility of redox couple ([1]; MeCN/TBABF4): reversible; ipc1/ipa1 (10 mV/s) [2, 4]: >5; ipc1/ipa1 (100 mV/s) [2, 4]: >5; E1^0 [2, 5]: −2.62 V; ipc1/ipa1 (10 mV/s) [2, 5]: 2.02; ipc1/ipa1 (100 mV/s) [2, 5]: 1.35
CCOC(=O)c1ccncc1 [Compound 3b]	1.28	1.03	−2.20	–	–	–	–
CC(C)OC(=O)c1ccncc1 [Compound 3c]	1.10	1.02	−2.20	–	–	–	–
CC(C)(C)OC(=O)c1ccncc1 [Compound 3d]	1.09	1.01	−2.24	–	–	–	reversible reduction processes ([2]; LiBF4 support, scan rates between 10 and 500 mV/s, acetonitrile or propylene carbonate): No reversible reduction processes were observed
CN(C)C(=O)c1ccncc1 [Compound 3e]	>5	1.18	−2.52	–	–	–	reversibility of redox couple ([1]; MeCN/TBABF4): irreversible; reversibility of redox couple ([2]; 100 mV/s): quasi-reversible
N#CCOC(=O)c1ccncc1 [Compound 3f]	>5	>5	–	–	–	–	reduction potential [1]: approximately −2.0 V; reversibility of reduction ([1]; MeCN/TBABF4): highly irreversible

Continued, in another order:

ipc1/ipa1 (10 mV/s) ([1]; MeCN/TBABF4)	ipc1/ipa1 (100 mV/s) ([1]; MeCN/TBABF4)	E1^0 ([1]; MeCN/TBABF4) [V]	ipc1/ipa1 (100 mV/s) ([1]; MeCN/LiBF4)	ipc1/ipa1 (10 mV/s) [2, 3]	E1^0 [2, 6] [V]	Structure (SMILES)	other results
>5	1.91	−2.03	–	–	–	O=C(OCC(F)(F)F)c1ccncc1 [Compound 3g]	reduction potential [1]: approximately −2.0 V; reversibility of reduction ([1]; MeCN/TBABF4): highly irreversible
>5	>5	–	–	–	–	O=C(OC(C(F)(F)F)C(F)(F)F)c1ccncc1 [Compound 3h]	reduction potential [1]: approximately −2.0 V; reversibility of reduction ([1]; MeCN/TBABF4): highly irreversible
1.41	1.05	−1.96	>5	>5	–	COC(=O)c1cc[n+]([O-])cc1 [Compound 4a]	–
–	–	–	>5	>5	–	CCOC(=O)c1cc[n+]([O-])cc1 [Compound 4b]	–
–	–	–	>5	>5	–	CC(C)OC(=O)c1cc[n+]([O-])cc1 [Compound 4c]	–
1.17	1.00	−2.01	>5	>5	–	CC(C)(C)OC(=O)c1cc[n+]([O-])cc1 [Compound 4d]	–
1.10	1.03	−1.42	1.02	1.06	−1.83	COC(=O)c1cc[n+]([B-](F)(F)F)cc1 [Compound 5a]	current peak-height ratios [1]: approaching unity
–	–	–	1.06	1.08	−1.80	CCOC(=O)c1cc[n+]([B-](F)(F)F)cc1 [Compound 5b]	–
–	–	–	1.06	1.09	−1.80	CC(C)OC(=O)c1cc[n+]([B-](F)(F)F)cc1 [Compound 5c]	–
1.05	1.03	−1.45	1.06	1.11	−1.84	CC(C)(C)OC(=O)c1cc[n+]([B-](F)(F)F)cc1 [Compound 5d]	current peak-height ratios [1]: approaching unity; re-oxidation after the second reduction ([2]; LiBF4 supporting electrolyte, 100 mV/s, scanned to more negative potentials): Minimal re-oxidation
–	–	–	–	0.99	−1.11	CC[n+]1ccc(C(=O)OC)cc1.[I-] [Compound 6a]	ipc2/ipa2 (10 mV/s) [2, 3]: 0.95; E2^0 [2, 7]: −1.85 V
–	–	–	–	0.98	−1.10	CCOC(=O)c1cc[n+](CC)cc1.[I-] [Compound 6b]	ipc2/ipa2 (10 mV/s) [2, 3]: 0.94; E2^0 [2, 7]: −1.86 V
–	–	–	–	0.98	−1.11	CC[n+]1ccc(C(=O)OC)cc1 [Compound 7a]	high potential peak ([1]; MeCN, TBABF4 as the electrolyte): no high potential peak is observed; anodic peak with no corresponding cathodic current ([2]; MeCN, 0.1 M LiBF4, 200 mV/s, +1 V to −2.5 V): +0.4 V; ipc2/ipa2 (10 mV/s) [2, 3]: 0.96; E2^0 [2, 7]: −1.88 V; E1^0 [2, 8]: −1.12 V; ipc1/ipa1 [2, 8]: 1.02^f; ipc2/ipa2 [2, 8]: 1.08^f; current peaks at positive potentials ([2]; MeCN/LiBF4, lower scanning limit −1.4 V or −0.5 V): no current peaks were observed; high potential peak ([2]; MeCN, LiTFSI as the support): only a small high potential peak
–	–	–	–	0.99	−1.11	CCOC(=O)c1cc[n+](CC)cc1 [Compound 7b]	ipc2/ipa2 (10 mV/s) [2, 3]: 0.96; E2^0 [2, 7]: −1.90 V
–	–	–	–	0.97	−1.13	CC[n+]1ccc(C(=O)OC(C)C)cc1 [Compound 7c]	ipc2/ipa2 (10 mV/s) [2, 3]: 0.95; E2^0 [2, 7]: −1.89 V
–	–	–	–	0.99	−1.15	CC[n+]1ccc(C(=O)OC(C)(C)C)cc1 [Compound 7d]	ipc2/ipa2 (10 mV/s) [2, 3]: 0.93; E2^0 [2, 7]: −1.93 V; E1^0 [2, 8]: −1.14 V; E2^0 [2, 8]: −1.92 V; ipc1/ipa1 [2, 8]: 1.09^f; ipc2/ipa2 [2, 8]: 1.38^f
–	–	–	–	0.98	−1.11	CC[n+]1ccc(C(=O)OC)cc1 [Compound 8a]	ipc2/ipa2 (10 mV/s) [2, 3]: 0.95; E2^0 [2, 7]: −1.89 V
